Experimental findings from patent US20220071971A1, “MACROCYCLIC COMPOUNDS AND THEIR USE IN THE TREATMENT OF DISEASE” (NOVARTIS AG, priority 2018, published 2022) are described below.

For this assay, the target named is T1, delF508-CFTR (Homo sapiens, UniProt P13569, DEL508-508).
T1 construct: expressed in transfected cells
In words: Measurement of delF508-CFTR-HRP surface expression in CFBE41o- cells. The following applies: for Emax: CFBE41o-, read-out: DelF508-CFTR-HRP Amax %; for EC50: HRP-tagged delF508-CFTR surface expression, CFBE41o- cells, 24 h with compound, 10-point curve, highest concentration 10 μM. Type of assay: cell-based. The essentials: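 CFBE41o- cells stably expressing delF508-CFTR with HRP in the fourth extracellular loop, induced 48 h with 500 ng/mL doxycycline, then exposed to compound (10-point, 3-fold, top 10 μM, ≤0.5% DMSO) for 24 h at 37° C. Surface HRP read by luminescence with cell-impermeant substrate; EC50 by logistic fit, triplicates, efficacy relative to reference corrector.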

Setting [1] is: efficacy relative to reference compound 3-(6-(1-(2,2-difluorobenzo[d][1,3]dioxol-5-yl)cyclopropane-1-carboxamido)-3-methylpyridin-2-yl)benzoic acid.

T1 sequence (P13569 with tags, fused parts or gaps DEL508-508): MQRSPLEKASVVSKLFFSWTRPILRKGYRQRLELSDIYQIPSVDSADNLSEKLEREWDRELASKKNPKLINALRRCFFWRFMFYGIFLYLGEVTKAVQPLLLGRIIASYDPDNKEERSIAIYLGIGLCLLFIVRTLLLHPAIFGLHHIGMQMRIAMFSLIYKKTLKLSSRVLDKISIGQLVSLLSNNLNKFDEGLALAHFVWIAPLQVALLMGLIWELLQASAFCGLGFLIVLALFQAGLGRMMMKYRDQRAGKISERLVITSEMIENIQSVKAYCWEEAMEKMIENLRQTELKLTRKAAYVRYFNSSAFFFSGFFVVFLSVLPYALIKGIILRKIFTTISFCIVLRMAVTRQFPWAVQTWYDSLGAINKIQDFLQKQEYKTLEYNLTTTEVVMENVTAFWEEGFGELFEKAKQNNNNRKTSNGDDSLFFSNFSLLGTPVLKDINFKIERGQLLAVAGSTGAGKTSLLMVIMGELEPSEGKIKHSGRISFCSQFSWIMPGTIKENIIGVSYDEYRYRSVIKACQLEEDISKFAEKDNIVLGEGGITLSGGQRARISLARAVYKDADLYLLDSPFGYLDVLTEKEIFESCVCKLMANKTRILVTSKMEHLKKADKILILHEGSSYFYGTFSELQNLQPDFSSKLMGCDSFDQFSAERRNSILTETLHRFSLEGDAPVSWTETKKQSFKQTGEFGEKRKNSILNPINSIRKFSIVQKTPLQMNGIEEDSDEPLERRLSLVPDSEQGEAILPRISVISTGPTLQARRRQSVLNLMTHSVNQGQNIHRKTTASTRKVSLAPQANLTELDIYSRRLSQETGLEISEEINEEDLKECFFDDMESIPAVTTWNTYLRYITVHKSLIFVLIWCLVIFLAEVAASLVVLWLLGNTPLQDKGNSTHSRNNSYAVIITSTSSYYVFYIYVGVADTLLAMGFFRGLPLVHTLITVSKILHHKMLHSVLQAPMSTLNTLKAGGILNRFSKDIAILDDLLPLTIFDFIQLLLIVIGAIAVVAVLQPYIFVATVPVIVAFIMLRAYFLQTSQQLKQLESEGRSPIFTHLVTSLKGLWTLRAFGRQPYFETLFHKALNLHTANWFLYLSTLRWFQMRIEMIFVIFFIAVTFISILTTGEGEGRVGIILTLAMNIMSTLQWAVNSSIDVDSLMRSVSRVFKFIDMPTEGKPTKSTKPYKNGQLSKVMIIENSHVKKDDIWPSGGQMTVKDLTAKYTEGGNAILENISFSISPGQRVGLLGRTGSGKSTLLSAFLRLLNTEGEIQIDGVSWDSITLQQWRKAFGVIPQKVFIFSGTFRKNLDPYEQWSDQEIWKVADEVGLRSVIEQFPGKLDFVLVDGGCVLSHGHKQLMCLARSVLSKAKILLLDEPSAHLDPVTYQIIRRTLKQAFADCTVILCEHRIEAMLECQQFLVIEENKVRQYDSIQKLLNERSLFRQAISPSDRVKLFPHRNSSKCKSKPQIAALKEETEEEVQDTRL

Regarding `O=S1(=O)Nc2ccc(C(F)(F)F)c(n2)-c2ccccc2CCCCCN(CCCO)c2cccc1n2` [Compound 29, 6-(3-hydroxypropyl)-2^3-(trifluoromethyl)-4-thia-3,6-diaza-2,5(2,6)-dipyridina-1(1,2)-benzenacycloundecaphane 4,4-dioxide], the EC50 amounted to 146 nM. In addition, the Emax under setting [1] is 517%.
Consider `O=C(O)CCOCCN1CCCCCc2ccccc2-c2nc(ccc2C(F)(F)F)NS(=O)(=O)c2cccc1n2` [Compound 64, 3-(2-(4,4-dioxido-2^3-(trifluoromethyl)-4-thia-3,6-diaza-2,5(2,6)-dipyridina-1(1,2)-benzenacycloundecaphane-6-yl)ethoxy)propanoic acid], for which the half-maximal effective concentration (EC50) was found to be 913 nM. Under setting [1], the Emax is 862%.
For `O=S1(=O)Nc2ccc(C(F)(F)F)c(n2)-c2cc(F)ccc2CCCCCN(CCCO)c2cccc1n2` [Compound 26, 1^5-fluoro-6-(3-hydroxypropyl)-2^3-(trifluoromethyl)-4-thia-3,6-diaza-2,5(2,6)-dipyridina-1(1,2)-benzenacycloundecaphane 4,4-dioxide], the concentration for a half-maximal effect (EC50) came to 668 nM.
On the same count and under the same terms, the value for `O=S1(=O)Nc2ccc(C(F)(F)F)c(n2)-c2ccccc2CCCCCCCN(CCCO)c2cccc1n2` [Compound 39, 6-(3-hydroxypropyl)-2^3-(trifluoromethyl)-4-thia-3,6-diaza-2,5(2,6)-dipyridina-1(1,2)-benzenacyclotridecaphane 4,4-dioxide] was 233 nM.
Turning to `O=S1(=O)Nc2ccc(C(F)(F)F)c(n2)-c2cccnc2OCCCCCOc2cccc1n2` [Compound 103, 2^3-(trifluoromethyl)-6,12-dioxa-4-thia-3-aza-1(3,2),2,5(2,6)-tripyridinacyclododecaphane 4,4-dioxide], the concentration giving a half-maximal response (EC50) was 1380 nM. In addition, the Emax under setting [1] was 197%.
For the compound `O=S1(=O)Nc2ccc(Cl)c(n2)-c2ccccc2CCCOc2cccc1n2` [Compound 114, 2^3-chloro-6-oxa-4-thia-3-aza-2,5(2,6)-dipyridina-1(1,2)-benzenacyclononaphane 4,4-dioxide], the EC50 was determined as 3310 nM. In addition, under setting [1], the Emax amounted to 97.1%.
`O=S1(=O)Nc2ccc(Cl)c(n2)-c2cccnc2NCCCCCNc2cccc1n2` [Compound 105, 2^3-chloro-4-thia-3,6,12-triaza-1(3,2),2,5(2,6)-tripyridinacyclododecaphane 4,4-dioxide]: the EC50 is 2220 nM. The Emax under setting [1] turned out to be 178%.
As for `O=S1(=O)Nc2ccc(C(F)(F)F)c(n2)-c2ccccc2CCCCCN(CCCCCO)c2cccc1n2` [Compound 15, 6-(5-hydroxypentyl)-2^3-(trifluoromethyl)-4-thia-3,6-diaza-2,5(2,6)-dipyridina-1(1,2)-benzenacycloundecaphane 4,4-dioxide], the EC50 was found to be 304 nM. The Emax under setting [1] amounted to 708%.
As for `O=S1(=O)Nc2ccc(C(F)(F)F)c(n2)-c2ccccc2CCCCCCNc2cccc1n2` [Compound 36, 2^3-(trifluoromethyl)-4-thia-3,6-diaza-2,5(2,6)-dipyridina-1(1,2)-benzenacyclododecaphane 4,4-dioxide], the EC50 amounted to 253 nM. For the same compound, the Emax under setting [1] came to 583%.
With `O=S1(=O)Nc2ccc(C(F)(F)F)c(n2)-c2ccccc2CCCCCN(CCN2CCOCC2)c2cccc1n2` [Compound 13, 6-(2-morpholinoethyl)-2^3-(trifluoromethyl)-4-thia-3,6-diaza-2,5(2,6)-dipyridina-1(1,2)-benzenacycloundecaphane 4,4-dioxide], the EC50 worked out at 393 nM. Also, the Emax under setting [1] came out at 601%.
As for `O=C(O)CCN1CCCCCCCCCc2ccccc2-c2nc(ccc2C(F)(F)F)NS(=O)(=O)c2cccc1n2` [Compound 75, 3-(4,4-dioxido-2^3-(trifluoromethyl)-4-thia-3,6-diaza-2,5(2,6)-dipyridina-1(1,2)-benzenacyclopentadecaphane-6-yl)propanoic acid], the half-maximal effective concentration (EC50) turned out to be 417 nM.
Turning to `O=C(O)CCCCN1CCCCCCc2ccccc2-c2nc(ccc2C(F)(F)F)NS(=O)(=O)c2cccc1n2` [Compound 78, 5-(4,4-dioxido-2^3-(trifluoromethyl)-4-thia-3,6-diaza-2,5(2,6)-dipyridina-1(1,2)-benzenacyclododecaphane-6-yl)pentanoic acid], the EC50 is 293 nM.
On to `O=S1(=O)Nc2ccc(C(F)(F)F)c(n2)-c2ccccc2CCCCC(CCCO)Oc2cccc1n2` (stereo not shown) [Compound 109, 7-(3-hydroxypropyl)-2^3-(trifluoromethyl)-6-oxa-4-thia-3-aza-2,5(2,6)-dipyridina-1(1,2)-benzenacycloundecaphane 4,4-dioxide], for which the concentration giving a half-maximal response (EC50) is 386 nM. Also, the Emax under setting [1] came to 186%.
`O=S1(=O)Nc2ccc(C(F)(F)F)c(n2)-c2cccnc2NCCCNc2cccc1n2` [Compound 10, 2^3-(trifluoromethyl)-4-thia-3,6,10-triaza-1(3,2),2,5(2,6)-tripyridinacyclodecaphane 4,4-dioxide]: the EC50 came to 2800 nM. Besides, the Emax under setting [1] was 29%.
For the compound `O=C(O)CCN1CCCCCc2ccc(F)cc2-c2nc(ccc2C(F)(F)F)NS(=O)(=O)c2cccc1n2` [Compound 97, 3-(1^5-fluoro-4,4-dioxido-2^3-(trifluoromethyl)-4-thia-3,6-diaza-2,5(2,6)-dipyridina-1(1,2)-benzenacycloundecaphane-6-yl)propanoic acid], the EC50 amounted to 747 nM. Also, the Emax under setting [1] was 728%.
Regarding `O=S1(=O)Nc2ccc(C(F)(F)F)c(n2)-c2ccccc2CCCCCCN(CCCCCO)c2cccc1n2` [Compound 12, 6-(5-hydroxypentyl)-2^3-(trifluoromethyl)-4-thia-3,6-diaza-2,5(2,6)-dipyridina-1(1,2)-benzenacyclododecaphane 4,4-dioxide], the 50% effective concentration (EC50) worked out at 236 nM.
`O=S1(=O)Nc2ccc(C(F)(F)F)c(n2)-c2ccccc2CCCCCCN(CCCO)c2cccc1n2` [Compound 21, 6-(3-hydroxypropyl)-2^3-(trifluoromethyl)-4-thia-3,6-diaza-2,5(2,6)-dipyridina-1(1,2)-benzenacyclododecaphane 4,4-dioxide]: the concentration giving a half-maximal response (EC50) came to 179 nM. In addition, the Emax under setting [1] stood at 941%.
On to `O=S1(=O)Nc2ccc(C(F)(F)F)c(n2)-c2ccccc2CCCCN(CCCO)c2cccc1n2` [Compound 20, 6-(3-hydroxypropyl)-2^3-(trifluoromethyl)-4-thia-3,6-diaza-2,5(2,6)-dipyridina-1(1,2)-benzenacyclodecaphane 4,4-dioxide], for which the EC50 worked out at 360 nM. Also, the Emax under setting [1] was found to be 337%.
On the same counts, the results for `O=S1(=O)Nc2ccc(C(F)(F)F)c(n2)-c2cccnc2NCCCCCCNc2cccc1n2` [Compound 7, 2^3-(trifluoromethyl)-4-thia-3,6,13-triaza-1(3,2),2,5(2,6)-tripyridinacyclotridecaphane 4,4-dioxide] are 977 nM and 386%.
Taken in the same sequence, the figures for `O=C(O)CCCCCN1CCCCCc2ccccc2-c2nc(ccc2C(F)(F)F)NS(=O)(=O)c2cccc1n2` [Compound 70, 6-(4,4-dioxido-2^3-(trifluoromethyl)-4-thia-3,6-diaza-2,5(2,6)-dipyridina-1(1,2)-benzenacycloundecaphane-6-yl)hexanoic acid] were 373 nM and 843%.
Turning to `O=S1(=O)Nc2ccc(C(F)(F)F)c(n2)-c2ccccc2CCCCCNc2cccc1n2` [Compound 118, 2^3-(trifluoromethyl)-4-thia-3,6-diaza-2,5(2,6)-dipyridina-1(1,2)-benzenacycloundecaphane 4,4-dioxide], the EC50 came to 511 nM. The Emax under setting [1] worked out at 705%.
Consider “6-(3-hydroxypropyl)-2^3-(trifluoromethyl)-9-oxa-4-thia-3,6-diaza-2,5(2,6)-dipyridina-1(1,2)-benzenacyclododecaphane 4,4-dioxide [Compound 30]”, for which the EC50 worked out at 1480 nM. Moreover, under setting [1], the “DelF508-CFTR-HRP Amax %” value came to 1656.8%.
Take `O=S1(=O)Nc2ccc(Cl)c(n2)-c2cccnc2OCCCCCNc2cccc1n2` [Compound 107, 2^3-chloro-12-oxa-4-thia-3,6-diaza-1(3,2),2,5(2,6)-tripyridinacyclododecaphane 4,4-dioxide]: the EC50 was determined as 1260 nM. Moreover, the Emax under setting [1] stood at 169%.
As to `O=S1(=O)Nc2ccc(C(F)(F)F)c(n2)-c2cc(F)ccc2CCCCCNc2cccc1n2` [Compound 31, 1^5-fluoro-2^3-(trifluoromethyl)-4-thia-3,6-diaza-2,5(2,6)-dipyridina-1(1,2)-benzenacycloundecaphane 4,4-dioxide], the EC50 was 614 nM. Also, the Emax under setting [1] worked out at 580%.
`O=S1(=O)Nc2ccc(C(F)(F)F)c(n2)-c2ccccc2CCCCCN(C[C@H](O)[C@@H](O)CO)c2cccc1n2` [Compound 129, 2^3-(trifluoromethyl)-6-((2S,3S)-2,3,4-trihydroxybutyl)-4-thia-3,6-diaza-2,5(2,6)-dipyridina-1(1,2)-benzenacycloundecaphane 4,4-dioxide]: the EC50 turned out to be 265 nM. Moreover, under setting [1], the Emax was 506%.
For the compound `COC(=O)CNCCN1CCCCCc2ccccc2-c2nc(ccc2C(F)(F)F)NS(=O)(=O)c2cccc1n2` [Compound 126, methyl (2-(4,4-dioxido-2^3-(trifluoromethyl)-4-thia-3,6-diaza-2,5(2,6)-dipyridina-1(1,2)-benzenacycloundecaphane-6-yl)ethyl)glycinate], the EC50 stood at 831 nM. In addition, under setting [1], the Emax came out at 488%.
Regarding `O=C(O)CCN1CCCCOc2ccc(F)cc2-c2nc(ccc2C(F)(F)F)NS(=O)(=O)c2cccc1n2` [Compound 81, 3-(1^5-fluoro-4,4-dioxido-2^3-(trifluoromethyl)-11-oxa-4-thia-3,6-diaza-2,5(2,6)-dipyridina-1(1,2)-benzenacycloundecaphane-6-yl)propanoic acid], the EC50 turned out to be 2330 nM. Besides, under setting [1], the Emax came out at 527%.

Broadly, the EC50 is the midpoint of the concentration-response curve.
